In series [1] the target is T1, LSD1 (Homo sapiens, UniProt O60341). Also on record: method as in PMID 30448189. The settings on record: cited from earlier work.
Series [2] deals with T1, LSD1. Briefly: LSD1 enzyme inhibition assay (H3K4me2 substrate, Amplex Red/HRP fluorescence).
Series [3] has as its target T1, LSD1. Conditions: cited from earlier work.

Usually melting point stands for the temperature of the solid-liquid transition. A word on the IC50: it is the point on the concentration scale where inhibition reaches its midpoint.

Where two headings read alike, the source gives them in different places.

Consider `COc1cc(Br)c(/C=C/c2ccc(C(=O)NO)cc2)cc1OC`, for which the melting point lay within 163 to 164 °C.

The molecule `COc1cc(F)c(/C=C/c2ccc(C(=O)NO)cc2)cc1OC` gave a melting point of 159 to 160 °C.

Turning to `N/C(=N\O)c1cccc(/C=C/c2ccnc(-c3cc(F)ccc3O)c2)c1` [Compound 22], in series [1], the “binding site by enzyme kinetics studies” value was “FAD region”.

Regarding `COc1ccc(/C=C/c2ccc(/C=C/C(=O)NO)cc2)cc1OC` [Compound 24], the melting point fell in the range of 205 to 206 °C. The molecule further displayed an IC50 in series [2] of 4160 nM.

`COc1cc(F)c(/C=C/c2ccc(/C=C/C(=O)NO)cc2)cc1OC` [Compound 25] had a melting point of 185 to 186 °C. Also, in series [2], the half-maximal inhibitory concentration (IC50) amounted to 3320 nM.

As for `COc1cc(/C=C/c2ccc(/C=C/C(=O)NO)cc2)cc(OC)c1` [Compound 26], the melting point lay in the range of 149 to 150 °C. Further, 5180 nM corresponded to half-maximal inhibition in series [2] (IC50).

The molecule `COc1cc(Br)c(/C=C/c2ccc(/C=C/C(=O)NO)cc2)cc1OC` [Compound 27] had a melting point of 120 to 121 °C. In series [2], the half-inhibitory concentration (IC50) amounted to 3980 nM.

As for `COc1cc(/C=C/c2ccc(C(=O)NO)cc2)cc(OC)c1` [Compound 29], the IC50 in series [2] is 692 nM.

Take `COc1ccc(/C=C/c2ccc(C(=O)NO)cc2)cc1OC` [Compound 30]: the melting point lay within 197 to 198 °C. This molecule had an IC50 in series [2] of 816 nM.

The molecule `O=C(NO)c1ccc(/C=C/c2cc(F)cc(F)c2)cc1` [Compound 31] had a melting point of 266 to 267 °C. Half-maximal inhibition in series [2] (IC50) required 1300 nM.

On to `O=C(NO)c1ccc(/C=C/c2ccc3c(c2)CCO3)cc1` [Compound 33], for which the melting point was 193 to 194 °C. For the same molecule, in series [2], the IC50 stood at 1930 nM.

For `O=C(O)c1ccc(CN2CCC(CN[C@@H]3C[C@H]3c3ccccc3)CC2)cc1` [GSK2879552], in series [3] (inhibition of LSD1), the IC50 was 20 nM.

On to `Cc1ccc(-c2ncc(OC[C@@H]3CCNC3)cc2-c2ccc(C#N)cc2)cc1` [GSK-354], for which, in series [3] (reversible LSD1 inhibitor), the IC50 was 90 nM.

As for `C#CCN(C)Cc1ccccc1` [pargyline], in series [3] (MAO inhibitors bonding covalently with FAD), the “inhibitory effect on LSD1” value was “no significant inhibitory effect”. The selectivity result in series [3] (MAO inhibitors) is given as “poor selectivity”.

The values above are taken from publication PMC6943670, “Investigating the Binding Mode of Reversible LSD1 Inhibitors Derived from Stilbene Derivatives by 3D-QSAR, Molecular Docking, and Molecular Dynamics Simulation” (Molecules, 2019).
